Measurements as given in patent US4745117A, “Imide derivatives and compositions for use as antipsychotic agents” (Sumitomo Pharmaceuticals Company, Limited, priority 1985, dated 1988).
Like-named read-outs stand apart in the source and are kept apart here.

Columns and labels:
[1] = test system: climbing behavior induced by apomorphine; test: Neuroleptic activity: anti-climbing behavior test (suppression of climbing behavior induced by apomorphine); type: in vivo, mice (dd strain male); conditions: for ED50: Mus musculus, read-out: ED50 (50% effective dose), anti-climbing
[2] = Extrapyramidal activity: catalepsy inducing activity test; parameters: species or system mice (dd strain male); conditions: mouse, in vivo
Procedure: (§1) (2) Extrapyramidal activity
(§2) This activity was examined through the catalepsy inducing activity test as described in M. Fujiwara et al.: Folia Formacol., Japon: 85, 259-274 (1985). A designated amount of the test compound was orally administered to dd strain male mice (bodyweight, 22 to 27 g), and 1 and 4 hours after the administration, catalepsy induction was checked according to the Wirth et al method. Thus, each of the animals was forced to hang the forepows onto a metal pole of 2.5 mm in diameter horizontally situated at a height of 5 cm to maintain a strained state. The test was made with three replications, and the presence of at least one case where the animal was kept in the strained state over a period of 30 seconds was deemed to have caused catalepsy.

catalepsy = test: as above; parameters: species or system mice (dd strain male); conditions: mouse, in vivo
Procedure: as §1, §2

[3] = 50 min, Oral administration, apomorphine 1.0 mg/kg s.c. after 50 minutes, mice
[4] = sc, Subcutaneous administration, apomorphine 1.0 mg/kg s.c., mice

| SMILES | ED50 [1, 3] [mg/kg] | ED50 [1, 4] [mg/kg] | ED50 ([1]; sc) [mg/kg] | neuroleptic activity (anti-climbing activity), in words ([1]; route not stated) | TD50 ([2]; oral administration, checked 1 and 4 hours after administration, mice, read-out: ED50, catalepsy induction) [mg/kg] | extrapyramidal activity (catalepsy inducing activity), in words (catalepsy) | TD50 ([2]; po) [mg/kg] |
| --- | --- | --- | --- | --- | --- | --- | --- |
| O=C1CC2(CCCC2)CC(=O)N1CCCCN1CCN(c2nsc3ccccc23)CC1 [Tiaspiron, 8-[4-(3-benzisothiazolyl)-1-piperazinylbutyl]-8-azaspiro[4,5]decane-7,9-dione] | > 10 | 0.23 |  |  |  |  |  |
| O=C(CCCN1CCC(O)(c2ccc(Cl)cc2)CC1)c1ccc(F)cc1 [Haloperidol, 4-[4-(4-chlorophenyl)-4-hydroxy-1-piperidinyl]-1-(4-fluorophenyl)-1-butanone] |  |  | 0.21 | significant neuroleptic activity | < 5 | considerably high level of extra-pyramidal activity |  |
| O=C1[C@@H]2[C@@H]3CC[C@@H](C3)[C@@H]2C(=O)N1CCCCN1CCN(c2nsc3ccccc23)CC1 [Compound No. 5, N--[4-{4-(1,2-Benzisothiazol-3-yl)-1-piperazinyl}butyl]bicyclo[2.2.1]heptane-2,3-di-endo-carboximide] | 2.6 | 0.13 |  |  |  |  | 112 |
| O=C1[C@@H]2[C@H]3CC[C@H](C3)[C@@H]2C(=O)N1CCCCN1CCN(c2nsc3ccccc23)CC1 [Compound No. 1, N-[4-{4-(1,2-Benzisothiazol-3-yl)-1-piperazinyl}butyl]bicyclo[2.2.1]heptane-2,3-di-exo-carboximide] | 2 | 0.15 |  |  |  |  | 68.1 |
